Tests used:
[1] = system: I154F FA cells; experiment: I154F frataxin point-mutation model, rescue from FAC and/or BSO; format: cell-based, murine
Excerpt: 2. Preliminary testing in the I154F frataxin point-mutation model determines whether test compounds can rescue I154F FA cells from lethal concentrations of FAC and/or BSO. Among the mammalian-cell models that have, or recapitulate, the genetic defects underlying FA, by far the most robust (and best validated) is the I154F murine frataxin point-mutation model developed by Puccio and colleagues (Calmels, N. et al.), the first cellular model based on frataxin missense mutations that reproduces spontaneously the defects associated with Friedreich ataxia (PLoS One 4, e6379 (2009)). […] This model is also extremely stable, with phenotypes unchanged after months of continuous culture. In contrast, the mutations in available primary human FA fibroblasts are GAA repeat expansions in the first intron of the FXN gene; occasional cells in which these expansions contract have a growth advantage and take over the culture, diluting the phenotype and increasing variance in various measures of compound efficacy.
In another screen, testing was conducted in the I154F point-mutation model as described above, to determine whether test compounds could rescue I154F FA cells from lethal or sublethal concentrations of FAC and/or BSO. Effective in this screen were the following compounds: N-[(5-chloro-8-hydroxyquinolin-7-yl)-thiophen-2-ylmethyl]-3-phenylpropanamide, N-[(5-chloro-8-hydroxyquinolin-7-yl)-thiophen-2-ylmethyl]pentanamide, N-[(5-chloro-8-hydroxyquinolin-7-yl)-furan-2-ylmethyl]-3-phenylpropanamide, N-[(5-chloro-8-hydroxyquinolin-7-yl)-furan-2-ylmethyl]propanamide, N-[(5-chloro-8-hydroxyquinolin-7-yl)-furan-2-ylmethyl]pentanamide, N-[(5-chloro-8-hydroxyquinolin-7-yl)-tolyl]-3-phenylpropanamide, N-[(5-chloro-8-hydroxyquinolin-7-yl)-(3-methoxyphenyl)methyl]-3-phenylpropanamide, N-[(5-chloro-8-hydroxyquinolin-7-yl)-(4-dimethylaminophenyl)methyl]-3-phenylpropanamide, N-[(5-chloro-8-hydroxyquinolin-7-yl)-(4-chlorophenyl)methyl]-3-phenylpropanamide, N-[(5-chloro-8-hydroxyquinolin-7-yl)-(3-chlorophenyl)methyl]-3-phenylpropanamide, N-[(5-chloro-8-hydroxyquinolin-7-yl)-(2-chlorophenyl)methyl]-3-phenylpropanamide, N-[(5-chloro-8-hydroxyquinolin-7-yl)-(3,4-dimethoxyphenyl)methyl]-3-phenylpropanamide, N-[(5-chloro-8-hydroxyquinolin-7-yl)-(2,4-dimethoxyphenyl)methyl]-3-phenylpropanamide, N-[(5-chloro-8-hydroxyquinolin-7-yl)-(3,4,5-trimethoxyphenyl)methyl]-3-phenylpropanamide, N-[(5-chloro-8-hydroxyquinolin-7-yl)-(2-bromophenyl)methyl]-3-phenylpropanamide, N-[(5-chloro-8-hydroxyquinolin-7-yl)-p-tolyl-methyl]-3-phenylpropanamide, N-[(5-chloro-8-hydroxyquinolin-7-yl)-(2-hydroxyphenyl)methyl]-3-phenylpropanamide (1a-18), and N-[(5-chloro-8-hydroxyquinolin-7-yl)-(4-methoxyphenyl)methyl]-3-phenylpropanamide.

[2] = system: yeast lacking Yfh1p; experiment: Yeast-based screening assay (WST-1 tetrazolium dye reduction); format: cell-based; conditions: glycerol medium, 72 h, OD450, single dose 50 uM, activity threshold >1.32 fold increase in absorbance
Method: The aim of this assay is to identify compounds that can improve mitochondrial function in yeast lacking Yfh1p grown in a non-fermentable growth medium. The yeast Yfh1p expression construct used in this study has a galactose-inducible, glucose-repressible promoter driving Yfh1p production. Yfh1p is expressed when yeast are grown in the presence of galactose and inhibited when they are grown in the presence of dextrose. Growing the cells in the presence of dextrose not only turns off the expression of Yfh1p, but also leads to the depletion of Yfh1p in the cells. Transferring the Yfh1p-depleted cells into a non-fermentable, glycerol-based medium dictates that the yeast must use an oxidative pathway. […] Cleavage of the tetrazolium salt to formazan is accompanied by an increase in absorbance at 450 nm.
Compounds in the single dose assay were evaluated on the basis of Fold Induction compared to yeast only, and those in the dose response assay on percent activation, i.e. percent induction of tetrazolium dye reduction in yeast grown in a non-fermentable growth medium. Percent activation was calculated using the optical density in control wells with cells treated with positive control compound (25 uM methyl 4-(1, 2, 4, 5-tetraazin-3-yl) phenyl ether (MLSMR External ID: MLS000550612; PubChem SID: 14718875)) as full induction of tetrazolium dye reduction (100% activation), and wells with cells grown in medium without methyl 4-(1, 2, 4, 5-tetraazin-3-yl) phenyl ether as an indicator of 0% activation. Library compounds were screened at 50 uM. From the 50 uM single dose assay, 1250 compounds with significant tetrazolium dye reduction were selected for confirmatory dose response assay. These compounds were screened in a 10-point dilution series ranging from 0.01 to 100 uM.
The following screening protocol was followed. Yeast cells containing an inducible/repressible promoter for Yfh1p expression were cultured in induction medium (Yfh1 on) with Galactose as the carbon source, and then shifted to repression medium (Yfh1 off) with Dextrose as the carbon source (for 24 hours) to allow Yfh1 protein to decay. The cells were then incubated for 24 h in respiration-only medium (Yfh1 off) with Glycerol as the carbon source to allow cells to equilibrate, and then plated in 384 well plates in respiration-only medium (Yfh1 off) with glycerol as carbon source, in the presence of Tetrazolium dye (WST-1) for 72 hours.
Preparation of Assay • 1. Cells were streaked out on a YPGal agar plate and grown inverted for 3 days at 30 C. • 2. A colony was selected and 10 mL of YPGal medium inoculated and grown over night at 30 C with shaking. • 3. The cells were counted on a coulter counter, centrifuged at 1400 g for 5 min in dextrose (CSMM-D) medium, washed twice to remove all galactose, and resuspended in CSMM-D medium at a cell density of 2 to the power of 5 cells/mL. • 4. Frozen stocks were prepared at this point, in dextrose medium. For these dextrose stock solutions, enough culture was grown in dextrose media over night with shaking at 30 C, to get a cell density of ˜2 to the power of 7 cells/mL. The cells were centrifuged at 1400 g for 5 min and the pellet resuspended in glycerol freezing medium at a cell density of 2 to the power of 8 cells/mL. • 5. The day before the screen, frozen culture was thawed at room temperature and resuspended in glycerol (CSMM-G) medium. • 6. The culture was grown over night at 30 C with shaking and the cells counted and diluted in CSMM-G medium for a final cell density of 4 to the power of 6 cells/mL. • 7. Methyl 4-(1, 2, 4, 5-tetraazin-3-yl) phenyl ether (positive control), CSMM-G medium alone (negative control) and compounds were plated with DMSO at 200× concentration (final concentrations: methyl 4-(1, 2, 4, 5-tetraazin-3-yl) phenyl ether 25 uM, compounds 50 uM, DMSO 0.5%) in 384-well plates: 125 nL/well. For the dose response assay, compounds were plated in a 10-point dilution series ranging from 0.01 to 100 uM, at 1% DMSO. • 8. […]

[3] = system: superoxide dismutase activity; experiment: Superoxide dismutase activity in vitro after metal pre-loading (Fluka assay kit); format: biochemical
Excerpt: 3. Evaluate the catalytic activity of the compound by pre-loading with manganese, iron, or other metal and assaying superoxide dismutase and/or catalase activity in vitro. This assay helps identify a possible mechanism of action that would help explain the unusual combination of high potency, and high specificity, of the compounds embodied herein. […] Yet compounds that act catalytically are usually relatively non-specific, whereas the compounds embodied herein were confirmed active in only one assay (the FA yeast assay mentioned above) of 168 high-throughput screening assays in which they have been tested to date. With no duty to disclose the mechanism of action of the compounds embodied here and without being bound based thereon, it is hypothesized that the compounds embodied herein are chelating iron within cells and acting as superoxide dismutase (SOD) and/or catalase mimetics.
In a further evaluation, the catalytic activity of the test compound was measured by pre-loading with manganese, or various forms of iron, or other metals, and assaying superoxide dismutase activity in vitro using an assay kit from Fluka. Control levels of inhibition of SOD activity was about 4.5%, and 300 nM compound N-[(5-chloro-8-hydroxyquinolin-7-yl)-thiophen-2-ylmethyl]-3-phenylpropanamide pre-loaded with manganese about 5%. However, preloading with iron acetate increased inhibition to about 40%.

[4] = system: complex I; experiment: Complex I inhibition in SH-SY5Y cells; format: cell-based
Method: Step 5. Screening in mammalian cells treated with inhibitors of specific complexes of the ETC. […] Antimycin A and oligomycin kill SH-SY5Y cells in the high nM range, as assessed by LDH leakage and DNA fragmentation.
Further screening in mammalian cells treated with inhibitors of specific complexes of the ETC is conducted. […] Antimycin A and oligomycin kill SH-SY5Y cells in the high nM range, as assessed by LDH leakage and DNA fragmentation.

[5] = system: SH-SY5Y cells; experiment: Killing of SH-SY5Y cells by ETC inhibitors; format: cell-based; conditions: for concentration range killing SH-SY5Y cells: LDH leakage and DNA fragmentation
Method: Step 5. Screening in mammalian cells treated with inhibitors of specific complexes of the ETC.
Further screening in mammalian cells treated with inhibitors of specific complexes of the ETC is conducted.

Molecule | rescue of I154F FA cells from lethal or sublethal concentrations of FAC and/or BSO [1] | active in the screen (tetrazolium dye reduction) [2] | concentration range killing SH-SY5Y cells [5] | also measured
O=C(CCc1ccccc1)NC(c1cccs1)c1cc(Cl)c2cccnc2c1O (stereo not drawn) [N-[(5-chloro-8-hydroxyquinolin-7-yl)-thiophen-2-ylmethyl]-3-phenylpropanamide] | Effective | active |  | inhibition of SOD activity ([3]; 300 nM compound pre-loaded with manganese, control about 4.5%): about 5%; increase in inhibition by iron ([3]; iron acetate versus manganese pre-loading): eight-fold; inhibition of SOD activity ([3]; preloading with iron acetate): about 40%
CCCCC(=O)NC(c1cccs1)c1cc(Cl)c2cccnc2c1O (stereo not drawn) [N-[(5-chloro-8-hydroxyquinolin-7-yl)-thiophen-2-ylmethyl]pentanamide] | Effective | active |  | 
CC(=O)NC(c1ccc(C)cc1)c1cc([N+](=O)[O-])c2cccnc2c1O (stereo not drawn) [N-[{8-hydroxy-5-nitro-7-quinolinyl}(4-methylphenyl)methyl]acetamide] |  | active |  | 
C=C(C)[C@H]1Cc2c(ccc3c2O[C@@H]2COc4cc(OC)c(OC)cc4[C@@H]2C3=O)O1 [Rotenone] |  |  |  | concentration range inhibiting complex I [4]: nM range; death ([5]; trypan blue exclusion, after 7 days at 60 μM): 90%
CC[C@H]1/C=C/C=C/C[C@@H](C)[C@H](O)[C@@](C)(O)C(=O)[C@@H](C)[C@H](O)[C@@H](C)C(=O)[C@@H](C)[C@H](O)[C@@H](C)/C=C/C(=O)O[C@@H]2[C@H](C)[C@H](CC1)O[C@]1(CC[C@H](C)[C@H](C[C@@H](C)O)O1)[C@H]2C [oligomycin] |  |  | high nM range | 
Antimycin A |  |  | high nM range | 

Reference: patent US10745390B2, “Small molecule activators of mitochondrial function” (THE TRUSTEES OF THE UNIVERSITY OF PENNSYLVANIA, priority 2008, dated 2020)
